The target in this experiment is T1, Nav1.8 (Homo sapiens, UniProt Q9Y5Y9).
T1 construct: gene SCN10A
The experiment is described as follows: whole-cell patch clamp of Nav1.[…] + FHF4A in ND7/[…] cells ([…] TTX), […] h pre-incubation; transient current. It counts as cell-based. A general note: In patch-clamp work, channel activity is measured electrically.

Structures are written as SMILES. Peptide text beside a SMILES is read from it. * marks the point of attachment. Cbz = O=C(OCc1ccccc1)*; Boc = CC(C)(C)OC(=O)*

T1 sequence (Q9Y5Y9 whole entry, looked up): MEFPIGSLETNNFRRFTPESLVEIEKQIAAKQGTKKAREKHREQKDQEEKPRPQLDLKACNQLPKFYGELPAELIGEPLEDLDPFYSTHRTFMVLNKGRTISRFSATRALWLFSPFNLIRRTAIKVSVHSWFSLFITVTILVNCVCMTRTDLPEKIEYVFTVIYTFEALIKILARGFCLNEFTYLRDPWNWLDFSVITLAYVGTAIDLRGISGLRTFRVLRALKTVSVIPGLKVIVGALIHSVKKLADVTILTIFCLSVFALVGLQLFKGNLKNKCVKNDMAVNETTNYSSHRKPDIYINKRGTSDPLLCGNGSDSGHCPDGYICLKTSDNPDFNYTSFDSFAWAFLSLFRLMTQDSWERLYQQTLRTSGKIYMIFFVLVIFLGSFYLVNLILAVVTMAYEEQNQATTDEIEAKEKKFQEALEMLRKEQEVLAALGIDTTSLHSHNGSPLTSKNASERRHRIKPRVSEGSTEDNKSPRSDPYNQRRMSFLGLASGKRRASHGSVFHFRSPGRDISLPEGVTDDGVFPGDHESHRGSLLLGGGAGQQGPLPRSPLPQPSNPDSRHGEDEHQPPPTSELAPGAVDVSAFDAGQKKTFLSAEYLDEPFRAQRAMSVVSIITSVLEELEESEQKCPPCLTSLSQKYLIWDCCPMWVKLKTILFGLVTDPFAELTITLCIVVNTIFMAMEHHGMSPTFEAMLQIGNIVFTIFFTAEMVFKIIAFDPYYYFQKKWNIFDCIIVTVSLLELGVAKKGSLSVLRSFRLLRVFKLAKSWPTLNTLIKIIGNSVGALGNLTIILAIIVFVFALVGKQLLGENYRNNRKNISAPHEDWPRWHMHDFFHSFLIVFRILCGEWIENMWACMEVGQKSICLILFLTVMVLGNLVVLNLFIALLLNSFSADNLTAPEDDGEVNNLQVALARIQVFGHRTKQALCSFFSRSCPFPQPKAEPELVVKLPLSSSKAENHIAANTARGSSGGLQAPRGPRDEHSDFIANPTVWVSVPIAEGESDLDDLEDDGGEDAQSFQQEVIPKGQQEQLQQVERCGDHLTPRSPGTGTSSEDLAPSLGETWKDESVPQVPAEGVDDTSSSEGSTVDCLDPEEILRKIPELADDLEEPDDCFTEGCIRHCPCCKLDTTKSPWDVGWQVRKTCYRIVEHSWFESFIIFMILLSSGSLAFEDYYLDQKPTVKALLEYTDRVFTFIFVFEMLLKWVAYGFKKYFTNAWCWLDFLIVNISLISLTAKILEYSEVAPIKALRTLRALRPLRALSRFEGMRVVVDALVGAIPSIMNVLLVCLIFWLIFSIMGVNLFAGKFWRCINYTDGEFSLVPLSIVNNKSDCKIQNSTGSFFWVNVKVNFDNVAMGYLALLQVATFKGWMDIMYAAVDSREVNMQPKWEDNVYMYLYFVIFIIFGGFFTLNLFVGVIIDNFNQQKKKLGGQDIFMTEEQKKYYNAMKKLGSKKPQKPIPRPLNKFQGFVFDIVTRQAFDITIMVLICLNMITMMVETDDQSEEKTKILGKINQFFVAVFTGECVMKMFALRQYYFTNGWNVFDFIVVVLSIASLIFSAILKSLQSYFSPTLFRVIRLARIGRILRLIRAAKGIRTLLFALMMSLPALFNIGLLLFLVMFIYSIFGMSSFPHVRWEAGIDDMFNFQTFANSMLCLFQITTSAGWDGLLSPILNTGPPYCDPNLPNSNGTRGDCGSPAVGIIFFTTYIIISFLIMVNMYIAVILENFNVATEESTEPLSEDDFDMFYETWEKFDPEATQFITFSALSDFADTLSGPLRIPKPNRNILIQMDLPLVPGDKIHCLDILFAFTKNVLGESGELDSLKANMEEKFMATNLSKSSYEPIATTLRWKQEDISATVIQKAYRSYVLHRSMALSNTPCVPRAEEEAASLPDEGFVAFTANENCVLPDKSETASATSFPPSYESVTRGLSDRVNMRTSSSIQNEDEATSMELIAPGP

By IC50 is commonly meant the concentration that gives 50% inhibition. For `CC(C)C[C@H](NC(=O)[C@H](Cc1ccccc1)NC(=O)OCc1ccccc1)C(=O)N1CCC[C@H]1C(=O)N[C@@H](CCCCNC(=O)OC(C)(C)C)C(N)=O` [ZL0177] (Cbz-FLPK(Boc)-NH2), the IC50 is about 19.5 µM.
